Data: PubChem BioAssay (NCI)
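In this assay, cells in 96-well plates receive the compound at five concentrations for 48 hours. Endpoints are linearly interpolated between the surrounding concentrations. Abbreviation: GI50, concentration required for 50% inhibition of growth. At the TGI there is no net growth.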

How the values were obtained:
Assay in all cases: inhibition of tumour cell growth, NCI panel, 48 h
[1] = test system: K-562 leukemia
[2] = test system: CCRF-CEM leukemia
[3] = test system: SK-OV-3 ovarian
[4] = test system: SN12C renal
[5] = test system: MOLT-4 leukemia
[6] = test system: SW-620 colon
[7] = test system: NCI-H522 lung
[8] = test system: PC-3 prostate
[9] = test system: MDA-MB-468 breast
[10] = test system: IGROV1 ovarian
[11] = test system: TK-10 renal
[12] = test system: HCT-116 colon
[13] = test system: MDA-MB-435
[14] = test system: OVCAR-5 ovarian
[15] = test system: CAKI-1 renal
[16] = test system: BT-549 breast
[17] = test system: MDA-MB-231 breast
[18] = test system: SF-268 CNS
[19] = test system: ACHN renal
[20] = test system: NCI-H226 lung
[21] = test system: COLO 205 colon
[22] = test system: A549 NSCLC
[23] = test system: RPMI-8226 leukemia
[24] = test system: OVCAR-8 ovarian
[25] = test system: UO-31 renal
[26] = test system: KM12 colon
[27] = test system: MALME-3M melanoma
[28] = test system: EKVX NSCLC
[29] = test system: SR leukemia
[30] = test system: DU-145 prostate
[31] = test system: UACC-62 melanoma
[32] = test system: 786-0 renal
[33] = test system: SK-MEL-28 melanoma
[34] = test system: SF-539 CNS
[35] = test system: HCC-2998 colon
[36] = test system: SNB-75 CNS
[37] = test system: OVCAR-4 ovarian
[38] = test system: SF-295 CNS
[39] = test system: SK-MEL-5 melanoma
[40] = test system: T-47D breast
[41] = test system: HS 578T breast
[42] = test system: M14 melanoma
[43] = test system: OVCAR-3 ovarian
[44] = test system: HL-60(TB) leukemia
[45] = test system: HOP-62 NSCLC
[46] = test system: NCI-H460 lung
[47] = test system: U251 CNS
[48] = test system: HT29 colon
[49] = test system: RXF 393 renal
[50] = test system: LOX IMVI melanoma
[51] = test system: A498 renal
[52] = test system: SNB-19 CNS
[53] = test system: HOP-92 NSCLC
[54] = test system: MCF7 breast
[55] = test system: UACC-257 melanoma
[56] = test system: HCT-15 colon
[57] = test system: NCI-H23 lung

CCN(CC)c1ccnc(CNCCSC(c2ccccc2)(c2ccccc2)c2ccc(OC)cc2)c1
GI50 [1]: 2.68 µM
TGI [1]: 8.97 µM
GI50 [2]: 3.13 µM
TGI [2]: 10.8 µM
GI50 [3]: 3.22 µM
TGI [3]: 13.2 µM
GI50 [4]: 3.43 µM
TGI [4]: 13.6 µM
GI50 [5]: 2.19 µM
TGI [5]: 7.13 µM
GI50 [6]: 3.14 µM
TGI [6]: 13.2 µM
GI50 [7]: 2.44 µM
TGI [7]: 7.29 µM
GI50 [8]: 3.19 µM
TGI [8]: 13.3 µM
GI50 [9]: 1.66 µM
TGI [9]: 4.49 µM
GI50 [10]: 3.82 µM
TGI [10]: 15.7 µM
GI50 [11]: 5.9 µM
TGI [11]: 19.2 µM
GI50 [12]: 2 µM
TGI [12]: 8.32 µM
GI50 [13]: 1.44 µM
TGI [13]: 5.12 µM
GI50 [14]: 2.93 µM
TGI [14]: 10.6 µM
GI50 [15]: 3.63 µM
TGI [15]: 16 µM
GI50 [16]: 2.62 µM
TGI [16]: 6.87 µM
GI50 [17]: 2.32 µM
TGI [17]: 5.78 µM
GI50 [18]: 4.35 µM
TGI [18]: 19 µM
GI50 [19]: 4.52 µM
TGI [19]: 17.2 µM
GI50 [20]: 3.1 µM
TGI [20]: 13.6 µM
GI50 [21]: 1.72 µM
TGI [21]: 3.52 µM
GI50 [22]: 3.74 µM
TGI [22]: 17.1 µM
GI50 [23]: 2.3 µM
TGI [23]: 6.43 µM
GI50 [24]: 2.71 µM
TGI [24]: 11.2 µM
GI50 [25]: 3.86 µM
TGI [25]: 17 µM
GI50 [26]: 3.41 µM
TGI [26]: 12.4 µM
GI50 [27]: 2.82 µM
TGI [27]: 9.49 µM
GI50 [28]: 3.61 µM
TGI [28]: 14.9 µM
GI50 [29]: 2.11 µM
TGI [29]: 12.4 µM
GI50 [30]: 3.78 µM
TGI [30]: 13.6 µM
GI50 [31]: 4.43 µM
TGI [31]: 17 µM
GI50 [32]: 1.75 µM
TGI [32]: 4.15 µM
GI50 [33]: 4.2 µM
TGI [33]: 15 µM
GI50 [34]: 2.15 µM
TGI [34]: 4.27 µM
GI50 [35]: 1.79 µM
TGI [35]: 3.41 µM
GI50 [36]: 1.65 µM
TGI [36]: 9.09 µM
GI50 [37]: 4.32 µM
TGI [37]: 20.6 µM
GI50 [38]: 2.2 µM
TGI [38]: 5.86 µM
GI50 [39]: 1.68 µM
TGI [39]: 3.06 µM
GI50 [40]: 2.94 µM
TGI [40]: 12 µM
GI50 [41]: 2.26 µM
TGI [41]: 6.8 µM
GI50 [42]: 1.85 µM
TGI [42]: 4.86 µM
GI50 [43]: 3.18 µM
TGI [43]: 11 µM
GI50 [44]: 1.65 µM
TGI [44]: 4.24 µM
GI50 [45]: 3.09 µM
TGI [45]: 12.3 µM
GI50 [46]: 3.12 µM
TGI [46]: 10.3 µM
GI50 [47]: 2.92 µM
TGI [47]: 10.7 µM
GI50 [48]: 1.98 µM
TGI [48]: 4.45 µM
GI50 [49]: 2.4 µM
TGI [49]: 7.2 µM
GI50 [50]: 1.9 µM
TGI [50]: 3.86 µM
GI50 [51]: 13.9 µM
TGI [51]: 29.7 µM
GI50 [52]: 4.3 µM
TGI [52]: 15.6 µM
GI50 [53]: 2.36 µM
TGI [53]: 9.84 µM
GI50 [54]: 1.3 µM
TGI [54]: 5.96 µM
GI50 [55]: 4.04 µM
TGI [55]: 15.9 µM
GI50 [56]: 2.87 µM
TGI [56]: 10.8 µM
GI50 [57]: 3.04 µM
TGI [57]: 10.2 µM
